ChEMBL document CHEMBL4765389, “Antimicrobial and anti-inflammatory activities of short dodecapeptides derived from duck cathelicidin: Plausible mechanism of bactericidal action and endotoxin neutralization” (Eur J Med Chem, 2020)
Active and inactive are the calls of the source. No cut-off for these calls is given here.

Tests used:
Erythrocyte = test: Hemolytic activity in sheep RBC assessed as reduction in hemoglobin at 256 uM incubated for 1 hr; type: ADME, cell-based, Ovis aries
[1] = Cytotoxicity against mouse RAW264.7 cells assessed as reduction in cell viability at 20 uM incubated for 24 hrs by MTT assay; type: cell-based; conditions: read-out: INH
Staphylococcus aureus [2] = test: Antibacterial activity against Staphylococcus aureus KCTC 1621 assessed as reduction in bacterial growth incubated for 24 hrs by CLSI based broth dilution method; type: functional; conditions: read-out: MIC100
[3] = tested on: Staphylococcus epidermidis; test: Antibacterial activity against Staphylococcus epidermidis KCTC 1917 assessed as reduction in bacterial growth incubated for 24 hrs by CLSI based broth dilution method; type: functional; conditions: read-out: MIC100
Bacillus subtilis = test: Antibacterial activity against Bacillus subtilis KCTC 3068 assessed as reduction in bacterial growth incubated for 24 hrs by CLSI based broth dilution method; type: functional; conditions: read-out: MIC100
Staphylococcus aureus [4] = test: Antibacterial activity against methicillin-resistant Staphylococcus aureus CCARM 3095 assessed as reduction in bacterial growth incubated for 24 hrs by CLSI based broth dilution method; type: functional; conditions: read-out: MIC100
Enterococcus faecium = test: Antibacterial activity against vancomycin-resistant Enterococcus faecium ATCC 51559 assessed as reduction in bacterial growth incubated for 24 hrs by CLSI based broth dilution method; type: functional; conditions: read-out: MIC100
Pseudomonas aeruginosa = test: Antibacterial activity against Pseudomonas aeruginosa KCTC 1637 assessed as reduction in bacterial growth incubated for 24 hrs by CLSI based broth dilution method; type: functional; conditions: read-out: MIC100
[5] = Antibacterial activity against multidrug-resistant Pseudomonas aeruginosa CCARM 2095 assessed as reduction in bacterial growth incubated for 24 hrs by CLSI based broth dilution method; type: functional; conditions: read-out: MIC100
Candida albicans [6] = test: Antifungal activity against Candida albicans KCTC 7965 assessed as reduction in fungal growth incubated for 24 hrs by CLSI based broth dilution method; type: functional; conditions: read-out: MIC100
Candida albicans [7] = test: Antifungal activity against Candida albicans KCTC 7121 assessed as reduction in fungal growth incubated for 24 hrs by CLSI based broth dilution method; type: functional; conditions: read-out: MIC100
Bacteria [8] = test: Antibacterial activity against Gram positive bacteria assessed as reduction in bacterial growth incubated for 24 hrs by CLSI based broth dilution method; type: functional; conditions: read-out: MIC100
Bacteria [9] = test: Antibacterial activity against Gram negative bacteria assessed as reduction in bacterial growth incubated for 24 hrs by CLSI based broth dilution method; type: functional; conditions: read-out: MIC100
Saccharomyces cerevisiae = test: Antifungal activity against yeast assessed as reduction in fungal growth incubated for 24 hrs by CLSI based broth dilution method; type: functional; conditions: read-out: MIC100
[10] = Therapeutic index, ratio of HC10 for sheep RBC to geometric mean MIC for yeast; type: toxicity; conditions: sheep red blood cells, read-out: TI
RAW264.7 [11] = test: Antiinflammatory activity against mouse RAW264.7 cells assessed as reduction in LPS-induced nitrite level at 5 uM incubated for 24 hrs by Griess reagent based assay relative to control; type: functional
Escherichia coli [12] = test: Antibacterial activity against Escherichia coli KCTC 1682 assessed as reduction in bacterial growth incubated for 24 hrs in presence of 20 % serum by CLSI based broth dilution method; type: functional; conditions: read-out: MIC100
Staphylococcus aureus [13] = test: Antibacterial activity against Staphylococcus aureus KCTC 1621 assessed as reduction in bacterial growth incubated for 24 hrs in presence of 1 mM MgCl2 by CLSI based broth dilution method; type: functional; conditions: read-out: MIC100
Staphylococcus aureus [14] = test: Antibacterial activity against Staphylococcus aureus KCTC 1621 assessed as reduction in bacterial growth incubated for 24 hrs in presence of 2.5 mM CaCl2 by CLSI based broth dilution method; type: functional; conditions: read-out: MIC100
Staphylococcus aureus [15] = test: Antibacterial activity against Staphylococcus aureus KCTC 1621 assessed as reduction in bacterial growth incubated for 24 hrs in presence of 4 uM FeCl3 by CLSI based broth dilution method; type: functional; conditions: read-out: MIC100
Staphylococcus aureus [16] = test: Antibacterial activity against methicillin-resistant Staphylococcus aureus CCARM 3090 assessed as reduction in bacterial growth incubated for 24 hrs in presence of chloramphenicol by CLSI based broth dilution method; type: functional; conditions: read-out: MIC100
Staphylococcus aureus [17] = test: Antibacterial activity against methicillin-resistant Staphylococcus aureus CCARM 3090 assessed as fractional inhibitory concentration incubated for 24 hrs in presence of chloramphenicol by CLSI based broth dilution method; type: functional
Staphylococcus aureus [18] = test: Antibacterial activity against methicillin-resistant Staphylococcus aureus CCARM 3090 assessed as fractional inhibitory concentration incubated for 24 hrs in presence of ciprofloxacin by CLSI based broth dilution method; type: functional
Staphylococcus aureus [19] = test: Antibacterial activity against methicillin-resistant Staphylococcus aureus CCARM 3090 assessed as fractional inhibitory concentration incubated for 24 hrs in presence of oxacillin by CLSI based broth dilution method; type: functional
Staphylococcus aureus [20] = test: Antibacterial activity against methicillin-resistant Staphylococcus aureus CCARM 3090 assessed as fractional inhibitory concentration index incubated for 24 hrs in presence of chloramphenicol by CLSI based broth dilution method; type: functional
Staphylococcus aureus [21] = test: Antibacterial activity against methicillin-resistant Staphylococcus aureus CCARM 3090 assessed as fractional inhibitory concentration index incubated for 24 hrs in presence of ciprofloxacin by CLSI based broth dilution method; type: functional
[22] = Antibacterial activity against multidrug-resistant Pseudomonas aeruginosa CCARM 2095 assessed as reduction in bacterial growth incubated for 24 hrs in presence of chloramphenicol by CLSI based broth dilution method; type: functional; conditions: read-out: MIC100
[23] = Antibacterial activity against multidrug-resistant Pseudomonas aeruginosa CCARM 2095 assessed as reduction in bacterial growth incubated for 24 hrs in presence of oxacillin by CLSI based broth dilution method; type: functional; conditions: read-out: MIC100
[24] = Antibacterial activity against multidrug-resistant Pseudomonas aeruginosa CCARM 2095 assessed as fractional inhibitory concentration incubated for 24 hrs in presence of chloramphenicol by CLSI based broth dilution method; type: functional
[25] = Antibacterial activity against multidrug-resistant Pseudomonas aeruginosa CCARM 2095 assessed as fractional inhibitory concentration incubated for 24 hrs in presence of ciprofloxacin by CLSI based broth dilution method; type: functional
[26] = Antibacterial activity against multidrug-resistant Pseudomonas aeruginosa CCARM 2095 assessed as fractional inhibitory concentration index incubated for 24 hrs in presence of ciprofloxacin by CLSI based broth dilution method; type: functional
Escherichia coli [27] = test: Bacteriostatic activity against Escherichia coli KCTC 1682 assessed as reduction in colony forming unit at 0.5 times MIC measured for 24 hrs by time kill assay; type: functional
Cell membrane [28] = test: Induction of cell membrane permeability in Staphylococcus aureus KCTC 1621 assessed as cytoplasmic membrane depolarization at 16 uM by DiSC3-5 dye based spectrofluorometry; type: subcellular
Cell membrane [29] = test: Induction of cell membrane permeability in Escherichia coli KCTC 1682 assessed as […] at 16 uM by ONPG dye based spectrophotometry; type: subcellular
Lipopolysaccharide (LPS) [30] = test: Displacement of BODIPY-TR cadaverine from Escherichia coli O111:B4 LPS at 20 uM measured for 100 sec by spectrofluorometry relative to control
RAW264.7 [31] = test: Antiinflammatory activity in mouse RAW264.7 cells assessed as suppression of LPS binding by measuring LPS-FITC aggregation at 10 uM pretreated with LPS for 1 hr followed by compound addition and measured after 30 mins by flowcytometry analysis (reference value: 67.93 %); type: functional; conditions: 0.5 h
[32] = Retention time of the compound by RP-HPLC method; type: physicochemical
Lipopolysaccharide (LPS) [33] = test: Displacement of BODIPY-TR cadaverine from Escherichia coli O111:B4 LPS measured for 100 sec by spectrofluorometry

Substance: H-LIKKIYRKWKRW-NH2
- Activity (Erythrocyte): Non-Toxic
- cytotoxicity at 24 h, 20 µM [1]: < 10%
- MIC (Staphylococcus aureus [2]): 4 µM
- MIC [3]: 4 µM
- MIC (Bacillus subtilis): 2 µM
- MIC (Staphylococcus aureus [4]): 8 µM
- MIC (Enterococcus faecium): 8 µM
- MIC (Pseudomonas aeruginosa): 2 µM
- MIC [5]: 8 µM
- MIC (Candida albicans [6]): 8 µM
- MIC (Candida albicans [7]): 4 µM
- MIC (Bacteria [8]): 7.1 µM
- MIC (Bacteria [9]): 5.6 µM
- MIC (Saccharomyces cerevisiae): 6 µM
- selectivity ratio [10]: 853
- inhibition at 5 µM (RAW264.7 [11]): 51.4%
- MIC (Escherichia coli [12]): 8 µM
- MIC (Staphylococcus aureus [13]): 4 µM
- MIC (Staphylococcus aureus [14]): 4 µM
- MIC (Staphylococcus aureus [15]): 8 µM
- MIC (Staphylococcus aureus [16]): 32 µM
- FIC (Staphylococcus aureus [17]): 0.25
- FIC (Staphylococcus aureus [18]): 0.25
- FIC (Staphylococcus aureus [19]): 0.125
- fractional inhibitory concentration index (FICI) (Staphylococcus aureus [20]): 0.5
- fractional inhibitory concentration index (FICI) (Staphylococcus aureus [21]): 0.5
- MIC [22]: 64 µM
- MIC [23]: 64 µM
- FIC [24]: 0.0625
- FIC [25]: 0.125
- fractional inhibitory concentration index (FICI) [26]: 0.375
- Activity (Escherichia coli [27]): 3 log10CFU/ml
- Activity (Cell membrane [28]): inactive
- Activity (Cell membrane [29]): inactive
- Activity (Lipopolysaccharide (LPS) [30]): 68%
- Activity (RAW264.7 [31]): 32.51%
- Retention_time [32]: 16.2 min

Substance: H-LWKKIYRKWKRW-NH2
- Activity (Erythrocyte): Non-Toxic
- cytotoxicity at 24 h, 20 µM [1]: < 10%
- MIC (Staphylococcus aureus [2]): 2 µM
- MIC [3]: 4 µM
- MIC (Bacillus subtilis): 2 µM
- MIC (Staphylococcus aureus [4]): 8 µM
- MIC (Enterococcus faecium): 8 µM
- MIC (Pseudomonas aeruginosa): 2 µM
- MIC [5]: 8 µM
- MIC (Candida albicans [6]): 8 µM
- MIC (Candida albicans [7]): 4 µM
- MIC (Bacteria [8]): 6.8 µM
- MIC (Bacteria [9]): 4 µM
- MIC (Saccharomyces cerevisiae): 6 µM
- selectivity ratio [10]: 853
- inhibition at 5 µM (RAW264.7 [11]): 91.6%
- MIC (Escherichia coli [12]): 8 µM
- MIC (Staphylococcus aureus [13]): 4 µM
- MIC (Staphylococcus aureus [14]): 4 µM
- MIC (Staphylococcus aureus [15]): 8 µM
- MIC (Staphylococcus aureus [16]): 32 µM
- FIC (Staphylococcus aureus [17]): 0.25
- FIC (Staphylococcus aureus [18]): 0.125
- FIC (Staphylococcus aureus [19]): 0.125
- fractional inhibitory concentration index (FICI) (Staphylococcus aureus [20]): 0.5
- fractional inhibitory concentration index (FICI) (Staphylococcus aureus [21]): 0.375
- MIC [22]: 128 µM
- MIC [23]: 64 µM
- FIC [24]: 0.125
- FIC [25]: 0.125
- fractional inhibitory concentration index (FICI) [26]: 0.375
- Activity (Escherichia coli [27]): 3 log10CFU/ml
- Activity (Cell membrane [28]): inactive
- Activity (Cell membrane [29]): inactive
- Activity (Lipopolysaccharide (LPS) [33]): Dose-dependent effect
- Activity (RAW264.7 [31]): 17.64%
- Retention_time [32]: 17.3 min
